Measured values reported in article PMC4890880 (ACS infectious diseases, 2016).
Where two headings read alike, the source gives them in different places.

Experiments:
[1] = test system: Plasmodium berghei (Pb-Luc) exoerythrocytic-stage parasites; test: microbe, parasite or virus in culture
[2] = test system: HepG2-A16-CD81EGFP cells; test: cells; conditions: Homo sapiens, HepG2, read-out: % inhibition
[3] = test system: HepG2-A16-CD81EGFP cells; conditions: human, 50 uM
[4] = read-out: Inhibition% @ 50 uM rep1
[5] = read-out: Inhibition% @ 50 uM rep2

| SMILES | inhibition at 50 µM [1, 4] [%] | inhibition at 50 µM [1, 5] [%] | inhibition at 50 µM [2] [%] | HepG2 Tox% @ 50 uM rep1 [3] [%] | HepG2 Tox% @ 50 uM rep2 [3] [%] |
| --- | --- | --- | --- | --- | --- |
| CCOc1ccc2nc(C)cc(Nc3ccc(Br)cc3)c2c1 [MMV006522] | 102 | 104 | 98.8 |  |  |
| CCOc1c(Cl)cc(CNC(C)C(O)c2ccccc2)cc1OC (centres unmarked) [MMV665857] | 102 | 103 | 98.7 |  |  |
| CCCn1c(=N)c(C(=O)NC2CCCCC2)cc2c(=O)n3cccc(C)c3nc21 [MMV008829] | 54 | 45 | -21 |  |  |
| COc1cc2c3cc1Oc1c(OC)c(OC)cc4c1C(Cc1ccc(O)c(c1)Oc1ccc(cc1)CC3N(C)CC2)N(C)CC4 (centres unmarked) [MMV007474] | 104 | 104 | 99.3 |  |  |
| Nc1nc(Nc2cccc(F)c2)nc2ccccc12 [MMV080034] | 102 | 103 | 81.8 |  |  |
| COc1ccc(-c2cc(=O)oc3c4c(ccc23)OCN(Cc2ccc(F)cc2)C4)cc1 [MMV000604] | 100 | 101 | 57.1 |  |  |
| COC(=O)c1ccc(Cl)c2c1C1C=CCC1C(c1cccc3ccccc13)N2 (centres unmarked) [MMV667489] | 97 | 99 | 61.4 |  |  |
| CCN(CC)CCCNc1ccnc2cc3ccccc3cc12 [MMV665783] | 90 | 95 | 31.7 |  |  |
| CCCCc1c(CCC)c(=N)c2ccccc2n1C [MMV007764] | 103 | 103 | 83.9 |  |  |
| OC1=C2C(=Nc3ccccc3SC2c2ccc(Br)cc2)c2ccccc21 (centres unmarked) [MMV007127] | 103 | 103 | 64.3 |  |  |
| COc1ccc(C2C(C(=O)Nc3cccc(OC)c3)c3ccccc3C(=O)N2C2CCCCC2)cc1 (centres unmarked) [MMV008455] | 94 | 92 | 28 |  |  |
| O=C(CCl)NCCOc1ccc(Cl)cc1Cl [MMV665927] | 100 | 99 | 91.7 |  |  |
| CCn1c2c(c(=N)c3c1CCC3)CCCC2 [MMV000340] | 102 | 102 | 75.3 |  |  |
| COc1ccc(OC)c(C2C3=C(CC(C)(C)CC3=O)N(c3ccc(Cl)c(Cl)c3)C3=C2C(=O)CC(C)(C)C3)c1 [MMV007208] | -11 | -11 | -4.26 |  |  |
| CCCCCCc1cc(O)c2c3c(c(=O)oc2c1)CCC(C)C3 (centres unmarked) [MMV665987] | 103 | 104 | 95.8 |  |  |
| OC1CCCCC1C1(NC(=S)Nc2ccccc2)CCCCC1 (centres unmarked) [MMV665980] | 104 | 104 | 82.2 |  |  |
| Cc1ccccc1OCCSc1nc2ccc(NC(=O)c3ccccc3)cc2s1 [MMV007577] | 103 | 103 | 67.4 |  |  |
| CC1CCN(Cc2c(O)ccc3cc(-c4nc5ccccc5s4)c(=O)oc23)CC1 [MMV009127] | 75 | 76 | -10.1 |  |  |
| COc1ccc(C(O)(CCC(C)C)C(CN2CCOCC2)c2ccc(Cl)cc2)cc1 (centres unmarked) [MMV000617] | 103 | 103 | 98.4 |  |  |
| CCOc1ccccc1NC(=O)CN1CCN(C(=O)c2ccco2)CC1 [MMV007791] | 16 | 43 | -15 |  |  |
| CCc1ccc(CNCC(O)c2ccccc2)cc1 (centres unmarked) [MMV665812] | 98 | 99 | 94.8 |  |  |

| SMILES | inhibition at 50 µM [1, 4] [%] | inhibition at 50 µM [1, 5] [%] | inhibition at 50 µM [2] [%] | HepG2 Tox% @ 50 uM rep1 [3] [%] | HepG2 Tox% @ 50 uM rep2 [3] [%] |
| --- | --- | --- | --- | --- | --- |
| Oc1ccc(C(=C(Cl)Cl)c2ccc(O)cc2)cc1 [MMV665949] | 98 | 99 | 87.2 |  |  |
| CN1C=C(c2ccc3ccccc3n2)C(c2c[nH]c3ccccc23)c2ccccc21 (centres unmarked) [MMV008160] | 103 | 104 | 91.2 |  |  |
| O=C(Nc1ccc(C23CC4CC(CC(c5ccccc5)(C4)C2)C3)cc1)c1cccs1 [MMV007574] | 103 | 103 | 83.6 |  |  |
| CCCCCCc1cc2cc(-c3csc(C=Cc4ccccc4)n3)c(=O)oc2cc1O [MMV666692] | 104 | 104 | 99.5 |  |  |
| O=c1cc(NC2CCN(CCCc3ccccc3)CC2)c2cc(Cl)ccc2o1 [MMV665786] | 100 | 103 | 80.6 |  |  |
| O=C(Nc1cccc(C2=NCCN2)c1)Nc1cccc(C2=NCCN2)c1 [MMV665810] | 61 | 83 | 48.2 |  |  |
| COc1cccc(Nc2nc(N)c3ccccc3n2)c1 [MMV019199] | 98 | 99 | 88.3 |  |  |
| N=c1n(CCN2CCCCC2)c2ccccc2n1CC(=O)c1ccc(Cl)c(Cl)c1 [MMV396723] | 101 | 102 | 96.7 |  |  |
| COc1ccc(C=C2SC(Nc3ccccc3)=NC2=O)cc1 [MMV665836] | 103 | 103 | 83.2 |  |  |
| COc1cc(C(=O)Nc2ccc(-c3nc4ccccc4[nH]3)cc2)cc(OC)c1OC [MMV665898] | 99 | 101 | 69.9 |  |  |
| CCOc1c(Br)cc(C2C(C(=O)OC)=CN(C)C=C2C(=O)OC)cc1OC [MMV006764] | 103 | 103 | 31.2 |  |  |
| Nc1ccn([C@@H]2O[C@H](CO)[C@@H](O)[C@H]2O)c(=O)n1 [MMV638723] | 30 | 19 | 3.04 |  |  |
| COc1ccc2sc(N(Cc3cccnc3)C(=O)c3ccc(C#N)cc3)nc2c1 [MMV001239] | 73 | 85 | 63.2 |  |  |
| CN(C)CCNc1cc(-c2ccccc2)nc2ccccc12 [MMV006704] | 95 | 97 |  | 96 |  |
| COc1ccc(CNC2CCN(c3ccc(NC(=O)c4cccc(Cl)c4)cc3)CC2)cc1OC [MMV666067] | 102 | 99 |  | 98 | 99 |
| OC(CNC1CCCCC1)Cn1c2ccc(I)cc2c2cc(I)ccc21 (centres unmarked) [MMV665882] | 103 | 104 |  | 100 |  |
| CCCCCn1c(=N)n(CC(O)COc2cccc(C)c2)c2ccccc21 (centres unmarked) [MMV000444] | 102 | 103 |  | 100 |  |
| CCOc1ccc2nc(C)cc(Nc3ccc(N(C)C)cc3)c2c1 [MMV007020] | 100 | 101 |  | 97 |  |
| COc1ccc(C=C2SC(Nc3ccc(F)cc3)=NC2=O)c(OC)c1 [MMV084434] | 103 | 104 |  | 100 |  |
| OC(CNCC1CCCO1)Cn1c2ccc(Cl)cc2c2cc(Cl)ccc21 (centres unmarked) [MMV396736] | 101 | 101 |  | 98 | 99 |
